Test results: article PMC10972746, “Substrate-induced condensation activates plant TIR domain proteins” (Nature, 2024)
Changes are numbered by the printed parent chain.

Legend:
TX14–GFP [1] = molecular target: T1, TX14–GFP (Arabidopsis thaliana, UniProt F4ISS7); assay: ATP-induced phase separation, confocal microscopy; conditions: 10 uM protein, 25 °C, 30 min; indirect read-out of binding
T1 construct: gene At2g32140; residues 1-351, GFP-tagged, pET-MBP-mGFP vector, E. coli BL21(DE3)
T1 sequence (F4ISS7 1-351): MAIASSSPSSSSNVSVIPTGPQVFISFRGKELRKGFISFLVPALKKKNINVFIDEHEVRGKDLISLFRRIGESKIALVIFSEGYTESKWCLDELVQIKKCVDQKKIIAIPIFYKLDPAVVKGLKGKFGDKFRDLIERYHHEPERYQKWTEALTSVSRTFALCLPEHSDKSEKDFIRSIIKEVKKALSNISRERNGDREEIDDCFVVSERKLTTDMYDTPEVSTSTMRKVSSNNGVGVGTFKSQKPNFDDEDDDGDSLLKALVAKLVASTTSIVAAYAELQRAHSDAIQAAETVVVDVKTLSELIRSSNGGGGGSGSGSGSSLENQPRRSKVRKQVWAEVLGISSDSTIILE

RBA1–GFP [2] = molecular target: T2, RBA1–GFP (Arabidopsis thaliana, UniProt F4HT77); assay: ATP-induced phase separation, confocal microscopy; conditions: 10 uM protein, 25 °C, 30 min; indirect read-out of binding
T2 construct: residues 1-191, GFP-tagged, pET-MBP-mGFP vector, E. coli BL21(DE3)
T2 sequence (F4HT77 1-191): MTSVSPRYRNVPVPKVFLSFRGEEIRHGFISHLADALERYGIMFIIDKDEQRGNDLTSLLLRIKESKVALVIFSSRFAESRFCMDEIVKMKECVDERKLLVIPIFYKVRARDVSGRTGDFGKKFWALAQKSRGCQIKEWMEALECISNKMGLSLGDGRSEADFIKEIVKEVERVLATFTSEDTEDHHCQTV

RPP1-TIR–GFP (RPP1-TIR) [3] = molecular target: T3, RPP1-TIR–GFP (RPP1-TIR) (Arabidopsis thaliana, UniProt Q9ZSN5); assay: ATP-induced phase separation, confocal microscopy and turbidity; conditions: 1 mM ATP, 25 uM protein, 5% PEG 3,350, pH 8.0, 25 °C, 30 min; indirect read-out of binding
T3 construct: TIR domain residues 1-254, GFP-tagged, pET-MBP-mGFP vector, E. coli BL21(DE3); an untagged 60-254 form (GST cut, Sf21) was also made
T3 sequence (Q9ZSN5 1-254): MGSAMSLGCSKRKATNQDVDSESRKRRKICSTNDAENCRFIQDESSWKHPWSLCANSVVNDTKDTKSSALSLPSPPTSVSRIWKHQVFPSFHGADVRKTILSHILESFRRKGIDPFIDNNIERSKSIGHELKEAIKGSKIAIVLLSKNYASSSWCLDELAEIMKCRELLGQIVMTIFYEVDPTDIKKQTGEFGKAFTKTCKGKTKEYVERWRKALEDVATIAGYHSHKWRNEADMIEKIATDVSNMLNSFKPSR

RBA1–GFP [4] = molecular target: T2, RBA1–GFP; assay: NADase assay, HPLC at […] nm; NAD+-induced phase separation by confocal microscopy; assay type: biochemical; conditions: 100 uM NAD+, 10 mM MgCl2, pH 8.0, 25 °C, 16 h; condensates: 10 uM protein, NAD+ 0.2 mM
TX14–GFP [5] = molecular target: T4, TX14–GFP (Arabidopsis thaliana, UniProt F4ISS7, E57A/V58A/R59A/G60A/K61A/D62A); assay: NADase assay, HPLC at […] nm; assay type: biochemical; conditions: 100 uM NAD+, 10 mM MgCl2, pH 8.0, 25 °C, 16 h
T4 construct: gene At2g32140; residues 1-351, GFP-tagged, pET-MBP-mGFP vector, E. coli BL21(DE3)
T4 sequence (F4ISS7 1-351 E57A/V58A/R59A/G60A/K61A/D62A): T1 sequence (F4ISS7 1-351) with E57A, V58A, R59A, G60A, K61A, D62A

TX14–GFP [6] = molecular target: T1, TX14–GFP; assay: NADase assay, HPLC at […] nm; NAD+-induced phase separation by confocal microscopy; assay type: biochemical; conditions: 100 uM NAD+, 10 mM MgCl2, pH 8.0, 25 °C, 16 h; condensates: 10 uM protein, NAD+ 0.2 mM
RPP1-TIR–GFP (RPP1-TIR) [7] = molecular target: T3, RPP1-TIR–GFP (RPP1-TIR); assay: as above; assay type: biochemical; conditions: 100 uM NAD+, 10 mM MgCl2, pH 8.0, 25 °C, 16 h; droplets: 1 mM NAD+, 25 uM protein, 5% PEG 3,350
TX14–GFP [8] = molecular target: T5, TX14–GFP (Arabidopsis thaliana, UniProt F4ISS7, S38D); assay: NADase assay, HPLC at […] nm; assay type: biochemical; conditions: 100 uM NAD+, 10 mM MgCl2, pH 8.0, 25 °C, 16 h; 40 uM protein
T5 construct: gene At2g32140; residues 1-351, GFP-tagged, pET-MBP-mGFP vector, E. coli BL21(DE3)
T5 sequence (F4ISS7 1-351 S38D): T1 sequence (F4ISS7 1-351) with S38D

Row | Compound | ATP-induced phase separation, confocal microscopy (TX14–GFP [1]) | ATP-induced phase separation, confocal microscopy (RBA1–GFP [2]) | ATP-induced phase separation, confocal microscopy and turbidity (RPP1-TIR–GFP (RPP1-TIR) [3]) | NADase assay, HPLC at 260 nm; NAD+-induced phase separation by confocal microsco (RBA1–GFP [4]) | relative NADase activity (TX14–GFP [5]) | NADase assay, HPLC at 260 nm; NAD+-induced phase separation by confocal microsco (TX14–GFP [6]) | NADase assay, HPLC at 260 nm; NAD+-induced phase separation by confocal microsco (RPP1-TIR–GFP (RPP1-TIR) [7]) | relative NADase activity (TX14–GFP [8])
1 | Nc1ncnc2c1ncn2[C@@H]1O[C@H](COP(=O)(O)OP(=O)(O)OP(=O)(O)O)[C@@H](O)[C@H]1O [ATP] | ATP and NAD^+/ATP induced phase separation of the TIR domain protein RBA1 and TX14 | ATP and NAD^+/ATP induced phase separation of the TIR domain protein RBA1 and TX14 | ATP induced phase separation of the RPP1-TIR–GFP protein | – | – | – | – | –
2 | NC(=O)c1ccc[n+]([C@@H]2O[C@H](COP(=O)(O)OP(=O)(O)OC[C@H]3O[C@@H](n4cnc5c(N)ncnc54)[C@H](O)[C@@H]3O)[C@@H](O)[C@H]2O)c1 [NAD^+] | – | – | – | wild-type RPP1-TIR, RBA1 and TX14 proteins nearly completely consumed the NAD^+ substrate | NAD^+-hydrolysing activity was significantly reduced in the corresponding BB-loop mutant proteins | wild-type RPP1-TIR, RBA1 and TX14 proteins nearly completely consumed the NAD^+ substrate | wild-type RPP1-TIR, RBA1 and TX14 proteins nearly completely consumed the NAD^+ substrate | the mutations of the AE interface impaired the NADase activity of these TIR domain proteins
